Reference: ChEMBL document CHEMBL5029145, “Discovery of AZD8154, a Dual PI3Kγδ Inhibitor for the Treatment of Asthma” (J Med Chem, 2021)
Converted amounts (≈) assume the structure as drawn.

What was measured:
[1] = biological target: Phosphatidylinositol 4,5-bisphosphate 3-kinase catalytic subunit alpha isoform (Homo sapiens, UniProt P42336); test: Inhibition of recombinant human PI3Kalpha assessed as reduction in ADP production using Dic8-PIP2 as substrate pre-treated for 15 mins followed by substrate addition measured after 60 mins by ADP-glo assay
Phosphatidylinositol 4,5-bisphosphate 3-kinase catalytic subunit alpha isoform, sequence (P42336 whole entry, canonical isoform): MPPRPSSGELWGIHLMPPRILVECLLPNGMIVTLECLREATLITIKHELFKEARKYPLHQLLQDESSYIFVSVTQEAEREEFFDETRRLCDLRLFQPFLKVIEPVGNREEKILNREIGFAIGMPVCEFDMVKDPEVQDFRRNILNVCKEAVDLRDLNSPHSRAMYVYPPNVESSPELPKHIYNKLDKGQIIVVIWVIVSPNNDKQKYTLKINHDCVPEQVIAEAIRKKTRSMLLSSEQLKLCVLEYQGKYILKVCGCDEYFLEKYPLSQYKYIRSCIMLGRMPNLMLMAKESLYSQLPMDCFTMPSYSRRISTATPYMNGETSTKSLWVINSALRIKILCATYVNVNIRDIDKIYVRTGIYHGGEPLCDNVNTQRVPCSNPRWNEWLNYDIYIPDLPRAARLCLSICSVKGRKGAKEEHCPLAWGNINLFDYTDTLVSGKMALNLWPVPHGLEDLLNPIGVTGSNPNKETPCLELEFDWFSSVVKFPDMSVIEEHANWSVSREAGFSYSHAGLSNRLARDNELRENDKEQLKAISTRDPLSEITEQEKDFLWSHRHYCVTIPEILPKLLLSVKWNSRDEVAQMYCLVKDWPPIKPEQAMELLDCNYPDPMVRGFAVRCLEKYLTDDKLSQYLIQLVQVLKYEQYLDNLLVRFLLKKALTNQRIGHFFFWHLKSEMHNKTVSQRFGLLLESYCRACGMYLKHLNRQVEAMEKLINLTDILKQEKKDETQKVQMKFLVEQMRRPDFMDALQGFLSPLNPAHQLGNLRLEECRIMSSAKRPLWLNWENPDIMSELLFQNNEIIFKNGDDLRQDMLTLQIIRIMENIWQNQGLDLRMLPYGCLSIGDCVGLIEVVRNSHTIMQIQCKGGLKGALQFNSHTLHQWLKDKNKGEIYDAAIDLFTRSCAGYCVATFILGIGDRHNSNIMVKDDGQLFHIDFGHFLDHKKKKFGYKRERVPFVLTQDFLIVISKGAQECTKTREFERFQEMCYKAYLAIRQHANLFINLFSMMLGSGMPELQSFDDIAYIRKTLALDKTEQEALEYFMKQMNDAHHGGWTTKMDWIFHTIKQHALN

[2] = biological target: Phosphatidylinositol 4,5-bisphosphate 3-kinase catalytic subunit gamma isoform (Homo sapiens, UniProt P48736); test: Inhibition of recombinant human PI3Kgamma assessed as reduction in ADP production using Dic8-PIP2 as substrate pre-treated for 15 mins followed by substrate addition measured after 60 mins by ADP-glo assay
Phosphatidylinositol 4,5-bisphosphate 3-kinase catalytic subunit gamma isoform (Homo sapiens, UniProt P48736), sequence (P48736 whole entry, canonical isoform): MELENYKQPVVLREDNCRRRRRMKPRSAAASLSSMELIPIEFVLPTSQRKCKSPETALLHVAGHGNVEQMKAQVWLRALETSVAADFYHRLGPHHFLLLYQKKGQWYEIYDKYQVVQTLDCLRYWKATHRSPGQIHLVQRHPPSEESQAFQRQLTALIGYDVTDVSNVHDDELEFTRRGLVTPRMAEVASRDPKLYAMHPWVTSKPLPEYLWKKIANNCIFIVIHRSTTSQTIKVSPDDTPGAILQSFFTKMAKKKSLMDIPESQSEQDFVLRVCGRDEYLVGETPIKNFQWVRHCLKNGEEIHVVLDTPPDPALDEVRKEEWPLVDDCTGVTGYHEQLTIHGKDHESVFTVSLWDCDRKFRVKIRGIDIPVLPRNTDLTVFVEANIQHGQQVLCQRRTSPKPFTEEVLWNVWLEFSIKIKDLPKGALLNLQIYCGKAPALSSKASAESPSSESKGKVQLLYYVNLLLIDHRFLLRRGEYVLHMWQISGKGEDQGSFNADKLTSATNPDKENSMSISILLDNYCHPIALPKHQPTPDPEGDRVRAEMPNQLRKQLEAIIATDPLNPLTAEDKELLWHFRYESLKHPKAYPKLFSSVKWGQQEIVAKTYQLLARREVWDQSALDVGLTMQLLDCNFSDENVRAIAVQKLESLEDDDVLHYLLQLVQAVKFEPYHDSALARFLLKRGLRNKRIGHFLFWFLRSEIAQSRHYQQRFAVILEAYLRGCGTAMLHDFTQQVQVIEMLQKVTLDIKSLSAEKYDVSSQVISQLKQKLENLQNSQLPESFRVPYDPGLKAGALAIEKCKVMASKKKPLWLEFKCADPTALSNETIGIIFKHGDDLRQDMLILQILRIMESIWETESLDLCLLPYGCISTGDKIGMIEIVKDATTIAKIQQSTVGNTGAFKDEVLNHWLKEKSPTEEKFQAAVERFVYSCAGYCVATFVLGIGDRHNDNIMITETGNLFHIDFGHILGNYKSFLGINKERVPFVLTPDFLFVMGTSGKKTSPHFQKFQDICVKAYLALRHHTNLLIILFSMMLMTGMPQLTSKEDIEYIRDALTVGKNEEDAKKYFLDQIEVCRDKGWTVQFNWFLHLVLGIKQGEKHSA

[3] = biological target: T1, Phosphatidylinositol 4,5-bisphosphate 3-kinase catalytic subunit delta isoform (Homo sapiens, UniProt O00329); test: Inhibition of recombinant human PI3Kdelta assessed as reduction in ADP production using Dic8-PIP2 as substrate pre-treated for 15 mins followed by substrate addition measured after 60 mins by ADP-glo assay
T1 sequence (O00329 whole entry): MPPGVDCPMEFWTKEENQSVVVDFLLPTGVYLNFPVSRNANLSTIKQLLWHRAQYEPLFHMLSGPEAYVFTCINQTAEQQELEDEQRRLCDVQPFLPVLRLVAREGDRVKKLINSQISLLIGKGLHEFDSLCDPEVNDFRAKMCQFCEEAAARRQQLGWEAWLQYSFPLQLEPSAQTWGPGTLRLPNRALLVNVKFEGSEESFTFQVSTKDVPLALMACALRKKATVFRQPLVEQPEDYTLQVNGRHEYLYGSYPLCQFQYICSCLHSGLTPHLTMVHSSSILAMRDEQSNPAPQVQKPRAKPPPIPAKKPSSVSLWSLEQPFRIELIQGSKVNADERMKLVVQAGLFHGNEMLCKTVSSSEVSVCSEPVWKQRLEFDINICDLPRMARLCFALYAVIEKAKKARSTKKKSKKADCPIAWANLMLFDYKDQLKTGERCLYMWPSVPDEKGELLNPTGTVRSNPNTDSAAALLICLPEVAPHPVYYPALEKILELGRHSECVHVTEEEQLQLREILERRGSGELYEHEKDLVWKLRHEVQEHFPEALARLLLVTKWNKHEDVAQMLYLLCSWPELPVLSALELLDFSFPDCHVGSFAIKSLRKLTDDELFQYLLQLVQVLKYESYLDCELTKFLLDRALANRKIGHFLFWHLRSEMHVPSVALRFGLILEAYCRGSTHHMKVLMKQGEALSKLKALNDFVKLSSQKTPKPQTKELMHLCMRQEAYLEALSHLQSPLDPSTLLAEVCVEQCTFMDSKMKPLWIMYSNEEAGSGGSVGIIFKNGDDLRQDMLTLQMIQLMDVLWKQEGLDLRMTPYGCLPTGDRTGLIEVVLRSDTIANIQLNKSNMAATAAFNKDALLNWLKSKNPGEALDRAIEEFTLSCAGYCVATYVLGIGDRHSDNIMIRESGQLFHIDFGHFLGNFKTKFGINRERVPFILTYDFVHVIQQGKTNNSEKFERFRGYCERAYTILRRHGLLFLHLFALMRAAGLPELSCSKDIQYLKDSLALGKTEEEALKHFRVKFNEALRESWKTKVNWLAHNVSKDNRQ

[4] = biological target: T1, Phosphatidylinositol 4,5-bisphosphate 3-kinase catalytic subunit delta isoform; test: Inhibition of PI3Kdelta in anti-IgM-stimulated human JeKo-1 cells assessed as inhibition of AKT phosphorylation at Ser473 residue incubated for 60 mins by TR-FRET assay
[5] = biological target: Phosphatidylinositol 4,5-bisphosphate 3-kinase catalytic subunit gamma isoform (Mus musculus, UniProt Q9JHG7); test: Inhibition of PI3Kgamma in C5a-stimulated mouse RAW 264 cells assessed as inhibition of AKT phosphorylation at Ser473 residue Pretreated for 15 mins followed by C5a stimulation measured after 3 mins by HTRF assay; format: cell-based
Phosphatidylinositol 4,5-bisphosphate 3-kinase catalytic subunit gamma isoform (Mus musculus, UniProt Q9JHG7), sequence (Q9JHG7 whole entry, canonical isoform): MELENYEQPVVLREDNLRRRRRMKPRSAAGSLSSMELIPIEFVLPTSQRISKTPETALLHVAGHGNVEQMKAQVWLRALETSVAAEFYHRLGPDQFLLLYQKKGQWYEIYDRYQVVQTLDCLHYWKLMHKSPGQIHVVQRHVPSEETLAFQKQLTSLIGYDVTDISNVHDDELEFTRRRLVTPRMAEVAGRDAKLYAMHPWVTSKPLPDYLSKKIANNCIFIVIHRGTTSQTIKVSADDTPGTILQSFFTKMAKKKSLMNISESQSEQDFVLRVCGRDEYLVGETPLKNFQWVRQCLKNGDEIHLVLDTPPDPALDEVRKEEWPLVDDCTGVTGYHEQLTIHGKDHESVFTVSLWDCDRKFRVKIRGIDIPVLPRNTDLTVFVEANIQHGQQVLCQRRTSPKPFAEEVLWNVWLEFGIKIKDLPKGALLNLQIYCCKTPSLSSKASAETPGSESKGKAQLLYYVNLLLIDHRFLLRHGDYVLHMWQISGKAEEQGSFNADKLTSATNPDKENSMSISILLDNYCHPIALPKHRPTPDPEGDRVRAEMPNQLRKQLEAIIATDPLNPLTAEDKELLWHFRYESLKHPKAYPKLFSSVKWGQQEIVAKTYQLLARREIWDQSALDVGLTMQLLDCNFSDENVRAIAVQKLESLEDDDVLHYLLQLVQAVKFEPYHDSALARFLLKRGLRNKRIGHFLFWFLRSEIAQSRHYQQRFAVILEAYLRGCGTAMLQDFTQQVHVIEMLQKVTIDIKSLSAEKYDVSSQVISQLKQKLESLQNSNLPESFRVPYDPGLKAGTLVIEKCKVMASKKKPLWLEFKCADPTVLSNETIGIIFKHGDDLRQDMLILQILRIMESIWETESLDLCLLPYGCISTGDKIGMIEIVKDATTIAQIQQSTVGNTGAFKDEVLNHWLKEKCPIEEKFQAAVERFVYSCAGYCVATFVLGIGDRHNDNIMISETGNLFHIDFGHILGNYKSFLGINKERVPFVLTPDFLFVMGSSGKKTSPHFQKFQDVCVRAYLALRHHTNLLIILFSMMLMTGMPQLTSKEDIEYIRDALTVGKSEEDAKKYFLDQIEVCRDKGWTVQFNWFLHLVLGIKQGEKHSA

[6] = biological target: Phosphatidylinositol 3-kinase catalytic subunit type 3 (Homo sapiens, UniProt Q8NEB9); test: Inhibition of PIK3C3 (unknown origin) assessed as reduction in substrate phosphorylation by FRET Adapta assay
Phosphatidylinositol 3-kinase catalytic subunit type 3, sequence (Q8NEB9 whole entry): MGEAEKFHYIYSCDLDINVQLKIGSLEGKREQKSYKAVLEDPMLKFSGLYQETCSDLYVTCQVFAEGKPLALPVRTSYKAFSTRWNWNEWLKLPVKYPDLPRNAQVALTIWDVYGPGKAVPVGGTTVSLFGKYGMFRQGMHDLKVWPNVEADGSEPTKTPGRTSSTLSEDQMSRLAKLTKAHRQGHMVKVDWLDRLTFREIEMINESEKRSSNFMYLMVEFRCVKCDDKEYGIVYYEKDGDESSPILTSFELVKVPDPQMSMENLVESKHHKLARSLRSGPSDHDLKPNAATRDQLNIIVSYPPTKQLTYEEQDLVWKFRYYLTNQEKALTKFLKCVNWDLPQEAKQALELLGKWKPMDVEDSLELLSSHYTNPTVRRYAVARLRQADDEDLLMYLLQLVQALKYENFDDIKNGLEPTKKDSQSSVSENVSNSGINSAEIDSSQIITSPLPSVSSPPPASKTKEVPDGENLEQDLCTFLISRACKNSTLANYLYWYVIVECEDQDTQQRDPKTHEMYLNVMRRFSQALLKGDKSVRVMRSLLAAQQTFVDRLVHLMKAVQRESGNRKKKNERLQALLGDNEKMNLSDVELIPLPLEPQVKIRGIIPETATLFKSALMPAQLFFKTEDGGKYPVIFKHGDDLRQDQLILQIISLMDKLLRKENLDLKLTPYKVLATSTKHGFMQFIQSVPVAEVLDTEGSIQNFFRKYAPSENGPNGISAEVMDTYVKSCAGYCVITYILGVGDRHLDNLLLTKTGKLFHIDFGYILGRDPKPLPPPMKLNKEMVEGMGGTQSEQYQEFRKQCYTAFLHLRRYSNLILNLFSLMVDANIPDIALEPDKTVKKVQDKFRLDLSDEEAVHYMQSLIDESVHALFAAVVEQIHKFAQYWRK

[7] = Volume of distribution at steady state in rat at 0.5 mg/kg, iv; format: ADME, organism-based; conditions: in vivo, read-out: Vdss
[8] = Permeability in human Caco2 cells; format: ADME, cell-based; conditions: caco-2
[9] = Solubility of compound in at pH 7.4 at 1 mg/ml using crystalline form of sample incubated for 24 hrs by HPLC MS analysis; format: physicochemical
[10] = biological target: Phosphatidylinositol 4-phosphate 3-kinase C2 domain-containing subunit alpha (Homo sapiens, UniProt O00443); test: Inhibition of PIK3C2A (unknown origin) assessed as reduction in substrate phosphorylation by FRET Adapta assay
[11] = biological target: Phosphatidylinositol 4-kinase beta (Homo sapiens, UniProt Q9UBF8); test: Inhibition of PI4KB (unknown origin) assessed as reduction in substrate phosphorylation by FRET Adapta assay
Phosphatidylinositol 4-kinase beta, sequence (Q9UBF8 whole entry): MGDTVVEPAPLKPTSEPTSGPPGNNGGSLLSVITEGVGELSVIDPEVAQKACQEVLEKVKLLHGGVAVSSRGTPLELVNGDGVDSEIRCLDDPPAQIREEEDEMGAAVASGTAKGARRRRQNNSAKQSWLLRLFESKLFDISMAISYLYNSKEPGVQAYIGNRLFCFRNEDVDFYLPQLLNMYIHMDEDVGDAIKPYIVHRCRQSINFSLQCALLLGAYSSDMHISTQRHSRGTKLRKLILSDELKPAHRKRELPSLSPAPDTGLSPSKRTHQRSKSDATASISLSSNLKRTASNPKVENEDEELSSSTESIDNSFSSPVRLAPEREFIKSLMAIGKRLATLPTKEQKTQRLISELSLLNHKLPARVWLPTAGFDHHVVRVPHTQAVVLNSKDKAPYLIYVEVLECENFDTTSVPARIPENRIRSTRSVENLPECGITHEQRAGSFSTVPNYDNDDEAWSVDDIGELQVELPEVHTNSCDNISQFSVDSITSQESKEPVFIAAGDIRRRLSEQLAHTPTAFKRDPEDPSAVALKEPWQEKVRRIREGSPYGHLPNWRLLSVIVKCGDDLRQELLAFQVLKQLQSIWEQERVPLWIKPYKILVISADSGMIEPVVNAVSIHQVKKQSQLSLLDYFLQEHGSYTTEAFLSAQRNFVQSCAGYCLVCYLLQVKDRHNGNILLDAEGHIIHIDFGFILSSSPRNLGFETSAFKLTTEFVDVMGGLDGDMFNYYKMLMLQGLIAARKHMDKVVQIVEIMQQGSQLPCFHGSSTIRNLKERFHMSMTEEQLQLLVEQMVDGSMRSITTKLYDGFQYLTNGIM

[12] = biological target: Phosphatidylinositol 4-kinase alpha (Homo sapiens, UniProt P42356); test: Inhibition of PI4KA (unknown origin) assessed as reduction in substrate phosphorylation by FRET Adapta assay
[13] = Half life in rat plasma at 0.5 mg/kg, iv; format: ADME, organism-based
[14] = Thermodynamic stability assessed as onset melting temperature; format: physicochemical
[15] = Apparent terminal half life in rat administered via inhalation; format: ADME; conditions: in vivo, inhaled or intranasal
[16] = Clearance in rat at 0.5 mg/kg, iv; format: ADME, organism-based; conditions: in vivo
[17] = Distribution coefficient, logD of compound at pH 7.4; format: physicochemical; conditions: octanol/water
[18] = Dissociation constant, pKa of compound; format: physicochemical
[19] = biological target: Phosphatidylinositol 4-phosphate 3-kinase C2 domain-containing subunit beta (Homo sapiens, UniProt O00750); test: Inhibition of PIK3C2B (unknown origin) assessed as reduction in substrate phosphorylation by FRET Adapta assay

| Compound | IC50 [1] | IC50 [3] | IC50 [4] | IC50 [5] | other results |
| --- | --- | --- | --- | --- | --- |
| CNS(=O)(=O)c1cc(-c2sc(Nc3cccc(N4CCCCC4=O)n3)nc2C)cc2c1C(=O)N([C@@H](C)C1CC1)C2 | 20 nM |  |  |  |  |
| Cc1nc2sc1-c1cc3c(c(c1)S(=O)(=O)NCCCCCNC(=O)c1cccc(n1)N2)C(=O)N([C@@H](C)C1CC1)C3 | 31.6 nM | 0.501 nM | 1.26 nM | 1.58 nM | IC50 [2]: 1.26 nM |
| Cc1nc2sc1-c1cc3c(c(c1)S(=O)(=O)NCCN(C)CCCNC(=O)c1cccc(n1)N2)C(=O)N([C@@H](C)C1CC1)C3 | 50.1 nM | 0.631 nM | 3.16 nM | 1 nM | IC50 [2]: 0.794 nM |
| Cc1nc(Nc2cccc(N3CCCOC3=O)n2)sc1-c1cc2c(c(S(C)(=O)=O)c1)C(=O)N([C@@H](C)C1CC1)C2 | 20 nM | 1.26 nM | 3.98 nM | 1.26 nM |  |
| Cc1nc(Nc2cccc(N3CCCC3=O)n2)sc1-c1cc2c(c(S(=O)(=O)NC3COC3)c1)C(=O)N([C@@H](C)C1CC1)C2 | 126 nM | 0.794 nM | 5.01 nM | 1 nM |  |
| Cc1nc(Nc2cccc(N3CCOCC3=O)n2)sc1-c1cc2c(c(S(=O)(=O)NC3COC3)c1)C(=O)N([C@@H](C)C1CC1)C2 | 100 nM |  |  |  | IC50 [6]: 31.6 nM; Vd [7]: 5.4 L/kg; permeability [8]: Impermeable; solubility thermodynamic at 24 h [9]: 0.337 µM (≈ 0.211 µg/mL); IC50 [10]: 3160 nM; IC50 [11]: 501 nM; IC50 [12]: > 10000 nM; half-life [13]: 0.7 h; Tm [14]: 187 °C; half-life [15]: 4.2 h; clearance [16]: 136 mL/min/kg; logD [17]: 3.5 |
| CNS(=O)(=O)c1cc(-c2sc(Nc3cccc(N4CCNCC4=O)n3)nc2C)cc2c1C(=O)N([C@@H](C)C1CC1)C2 | 39.8 nM | 0.794 nM | 6.31 nM | 3.98 nM |  |
| Cc1nc(Nc2cccc(N3CCN(C)C3=O)n2)sc1-c1cc2c(c(S(C)(=O)=O)c1)C(=O)N([C@@H](C)C1CC1)C2 | 39.8 nM | 0.794 nM | 3.98 nM | 1 nM |  |
| CNS(=O)(=O)c1cc(-c2sc(Nc3cccc(N4CC[C@@H](O)C4=O)n3)nc2C)cc2c1C(=O)N([C@@H](C)C1CC1)C2 | 15.8 nM |  | 3.98 nM | 2.51 nM |  |
| Cc1nc(Nc2cccc(N3CCCCC3=O)n2)sc1-c1cc2c(c(S(C)(=O)=O)c1)C(=O)N([C@@H](C)C1CC1)C2 | 31.6 nM | 1.26 nM | 12.6 nM | 1.58 nM |  |
| CNS(=O)(=O)c1cc(-c2sc(Nc3cccc(N4CCOCC4=O)n3)nc2C)cc2c1C(=O)N([C@@H](C)C1CC1)C2 | 39.8 nM | 0.631 nM | 3.98 nM | 0.794 nM |  |
| Cc1nc2sc1-c1cc3c(c(c1)S(=O)(=O)NCCN(C)CCNC(=O)c1cccc(n1)N2)C(=O)N([C@@H](C)C1CC1)C3 | 39.8 nM | 0.501 nM | 3.16 nM | 1.58 nM | IC50 [2]: 1.58 nM; Vd [7]: 7.3 L/kg; permeability [8]: Impermeable; solubility thermodynamic at 24 h [9]: 1.09 µM (≈ 0.649 µg/mL); half-life [13]: 1.8 h; Tm [14]: 349 °C; pKa [18]: 6.4; half-life [15]: 7.5 h; clearance [16]: 83 mL/min/kg; logD [17]: 3.9 |
| CNS(=O)(=O)c1cc(-c2sc(Nc3cccc(N4CCCOC4=O)n3)nc2C)cc2c1C(=O)N([C@@H](C)C1CC1)C2 | 20 nM | 0.631 nM | 2.51 nM | 1 nM |  |
| Cc1nc(Nc2cccc(N3CCNC3=O)n2)sc1-c1cc2c(c(S(=O)(=O)NC3COC3)c1)C(=O)N([C@@H](C)C1CC1)C2 | 31.6 nM | 0.631 nM | 3.16 nM | 2 nM |  |
| Cc1nc(Nc2cccc(N3CCOCC3=O)n2)sc1-c1cc2c(c(S(C)(=O)=O)c1)C(=O)N([C@@H](C)C1CC1)C2 | 50.1 nM |  |  |  |  |
| CC(=O)Nc1nc(C)c(-c2cc3c(c(S(=O)(=O)Nc4cccc(S(C)(=O)=O)c4)c2)C(=O)N([C@@H](C)C2CC2)C3)s1 |  | 3.16 nM | 31.6 nM | 15.8 nM | IC50 [2]: 1.26 nM |
| CNS(=O)(=O)c1cc(-c2sc(Nc3cccc(N4CCN(C)CC4=O)n3)nc2C)cc2c1C(=O)N([C@@H](C)C1CC1)C2 | 39.8 nM | 1.58 nM | 6.31 nM | 1.26 nM |  |
| Cc1nc2sc1-c1cc3c(c(c1)S(=O)(=O)NCCOCCNC(=O)c1cccc(n1)N2)C(=O)N([C@@H](C)C1CC1)C3 | 39.8 nM | 0.631 nM | 2 nM | 0.794 nM | IC50 [6]: 25.1 nM; IC50 [2]: 2.51 nM; Vd [7]: 8.6 L/kg; permeability [8]: Permeable; solubility thermodynamic at 24 h [9]: 0.084 µM (≈ 0.0489 µg/mL); IC50 [10]: 316 nM; IC50 [11]: 20 nM; IC50 [12]: > 10000 nM; half-life [13]: 1.8 h; Tm [14]: 377 °C; half-life [15]: 6.9 h; IC50 [19]: 0.794 nM; clearance [16]: 110 mL/min/kg; logD [17]: 3.7 |
